Reference: patent US9220723B2, “Cancer therapy” (BRANDEIS UNIVERSITY, priority 2010, dated 2015)

Experiments:
[1] = system: NRASD12 expressing NIH3T3 cells; test: Immunofluorescence localization of NRASD12 after FASN inhibitor treatment; assay type: cell-based; conditions: 1 uM, 3 hrs post-treatment, anti-myc-tag immunofluorescence
Description: Localization of myc-tagged NRASD12 in MSCV-GFP-ires-2xmycNRASD12 infected NIH3T3 cells 3 hrs post-treatment with 1 uM cerulenin or 1 uM C75. NRASD12 were visualized by confocal microscope after probing with anti-myc-tag (9E10) antibody overnight at 4° C. and AlexaFluor-conjugated secondary antibody (red).
As a proof of principle studies of the effect of FASN inhibitors on NRAS palmitoylation/localization, we examined the effect of cerulenin and C75 on NRASD12 expressing NIH3T3 cells.

[2] = mouse, in vivo; cited from earlier work
[3] = caused by highly reactive epoxy group; cited from earlier work
murine DHHC9 mRNA = test: Real-time RT-PCR of DHHC9 mRNA after siRNA transfection; assay type: cell-based; conditions: NIH3T3 cells, compared to scrambled siRNA
Description: (§1) (A) Relative DHHC9 (SEQ ID NO: 10) mRNA levels in NIH3T3 cells transfected by either DHHC9 (SEQ ID NO: 10) siRNA or control siRNA were determined by real-time RT-PCR. (B) GFP-NRASD12 expressing NIH3T3 cells transfected by either DHHC9 (SEQ ID NO: 10) siRNA or control siRNA were visualized by confocal microscope. Original magnification was 630×.
(§2) To determine the role of DHHC9 (SEQ ID NO: 10) in NRAS biology, we first examined the effect of DHHC9 (SEQ ID NO: 10) downregulation on cellular localization of oncogenic NRAS (NRASD12). RNA interference (RNAi) is a powerful tool for gene function studies and holds promise for the development of new molecular medicines. RNAi usually downregulate but often not abolish the target mRNAs, which mimic therapies more than gene-knockout. In addition, since DHHC9 (SEQ ID NO: 10) may have substrates other than RAS, knocking out the DHHC9 (SEQ ID NO: 10) gene might be toxic to cells. For these reasons we tested several small interference RNA (siRNA) specific to murine DHHC9 (SEQ ID NO: 10) for their ability to downregulate the DHHC9 (SEQ ID NO: 10) mRNA. […] Still further, the present invention provides systems for identifying cancer patients likely to respond to therapy that includes administration of one or more palmitoyl-acyl transferase inhibitors.

[4] = system: NIH3T3 cells expressing the GFP-NRASD12 fusion protein; test: Confocal localization of GFP-NRASD12 after DHHC9 siRNA transfection; assay type: cell-based; conditions: confocal microscopy
Description: as §1, §2

FASN = test: Western blot of FASN expression after FASN miRNA transduction; assay type: cell-based; conditions: NIH3T3 cell lines, puromycin selected (data not shown)
Description: (§3) We then examined the effect of knocking down FASN expression on RAS localization by the RNA interference (RNAi) approach. RNAi is endogenously mediated by microRNA (miRNA) ^30. miRNAs are generated from primary transcripts (pri-miRNAs) and processed into pre-miRNA and eventually mature miRNA. Artificial miRNAs are natural pri-miRNA in which the stem sequence of a miRNA has been substituted with a sequence targeting the gene of interest. In target cells, artificial miRNA undergoes the same processing steps of the parental pri-miRNA. A FASN specific small hairpin (sh) RNA (Open-Biosystems) was cloned into a MSCV-based retroviral shRNAmir (pSM2; Open-Biosystems) vector to generate an artificial miRNA for FASN (the cloning oligo for the FASN shRNA: 5′ TGCTGTTGACAGTGAGCGCCGCTTCTTAGAGATTGGCAAATAGTGAAGCCACAGATGTATTTGCCAATCTCTAAGAAGCGATGCCTACTGCCTCGGA 3′ (SEQ ID NO: 35)). The miRNA is under the control a U6 promoter and the vector includes a puromycin resistance gene under the control of phosphoglycerate kinase (PGK) eukaryotic promoter ^31. A scrambled shRNA (the cloning oligo: 5′ TGCTGTTGACAGTGAGCGCTTCCTCTCTTTCTCTCCCTTTA GTGAAGCCACAGATGTACAAGGGAGAGAAAGAGAGGAAGGATGCCTACTGCCTCGGA 3′ (SEQ ID NO: 36)) was similarly cloned into pSM2 as a control. […]

3T3-GFP-NRASD12 cells = test: Confocal localization of GFP-NRASD12 after FASN miRNA transduction; assay type: cell-based; conditions: confocal microscopy
Description: (§4) Fixed and permeablized cells were stained with an anti-BIP antibody, followed by an alexafluor 635-conjugated secondary antibody, and visualized on a Leica TCS SP2 Spectral Confocal Microscope. Original magnification was 630×.
as §3, with “^31.” for “^31. A scrambled shRNA (the cloning oligo: 5′ TGCTGTTGACAGTGAGCGCTTCCTCTCTTTCTCTCCCTTTA GTGAAGCCACAGATGTACAAGGGAGAGAAAGAGAGGAAGGATGCCTACTGCCTCGGA 3′ (SEQ ID NO: 36)) was similarly cloned into pSM2 as a control.”

[5] = system: NIH3T3 cells expressing GFP-KRAS4BD12; test: Confocal localization of GFP-KRAS4BD12 after FASN miRNA transduction; assay type: cell-based; conditions: confocal microscopy
Description: as §4
as §3, with “^31.” for “^31. A scrambled shRNA (the cloning oligo: 5′ TGCTGTTGACAGTGAGCGCTTCCTCTCTTTCTCTCCCTTTA GTGAAGCCACAGATGTACAAGGGAGAGAAAGAGAGGAAGGATGCCTACTGCCTCGGA 3′ (SEQ ID NO: 36)) was similarly cloned into pSM2 as a control.”

3T3-NRASD12 cells = test: Cell morphology and foci (sphere) formation, 3T3-NRASD12; assay type: cell-based; conditions: 3T3-NRASD12 cells cultured for 6 days
Description: (§5) FIG. 16 illustrates the morphology of cultured NIH3T3 cells stably expressing the proteins and miRNAs indicated. Equal numbers (5×10^5) of cells were plated onto 100-mm plates after puromycin selection and were cultured for 6 days before representative pictures were taken (original magnification 100×)
(§6) Both 3T3-NRASD12 ^28 and 3T3-KRAS4BD12 form sphere-like foci in culture, while 3T3-MiG cells grow as normal NIH3T3 cells (FIG. 16). […] We plated equal cell numbers of scrambled or FASN miRNA-transduced, puromycin-selected 3T3-NRASD12 or 3T3-KRASD12 cell lines cultured for 6 days and observed cell morphology and foci formation (FIG. 16). […] However, these cells had somewhat altered morphology, similar to those observed in 3T3-NRASD12^C181S cells.

3T3-KRASD12 cells = test: Cell morphology and foci (sphere) formation, 3T3-KRASD12; assay type: cell-based; conditions: 3T3-KRASD12 cells cultured for 6 days
Description: as §5, §6

## C=C1C(=O)OC(CCCCCCCC)C1C(=O)O (centres unmarked) [C75]
[1]
  localization of NRASD12: mislocalized to internal membranes
[2]
  effects of treatment on metabolism, weight and feeding: increased metabolism, rapid and significant weight loss, and fasting

## C/C=C/C/C=C/CCC(=O)[C@H]1O[C@H]1C(N)=O [cerulenin, Cerulenin]
[1]
  localization of NRASD12: mislocalized to internal membranes
[3]
  stability: innate instability

## DHHC9 siRNA: siRNA specific to murine DHHC9; sense SEQ ID NO: 37, antisense SEQ ID NO: 38 (sense GGAAGAAGAACUAUGUAUUAUAUGT; antisense ACAUAUAAUACAUAGUUCUUCUUCCCU; chemistry not given here)
Murine DHHC9 mRNA
  levels of DHHC9 mRNA: dramatically reduced
[4]
  localization of GFP-NRASD12: mislocalization of GFP-NRASD12 to internal membranes

B1: FASN miRNA: FASN specific small hairpin RNA (Open-Biosystems) cloned into pSM2 retroviral shRNAmir vector; cloning oligo SEQ ID NO: 35 (nucleic acid)
DNA: TGCTGTTGACAGTGAGCGCCGCTTCTTAGAGATTGGCAAATAGTGAAGCCACAGATGTATTTGCCAATCTCTAAGAAGCGATGCCTACTGCCTCGGA
FASN
  FASN expression: largely abolished
3T3-GFP-NRASD12 cells
  localization of GFP-NRAS: mislocalized to endomembranes
[5]
  localization of GFP-KRAS4BD12: localized to both the plasma membrane and internal membranes
3T3-NRASD12 cells
  sphere (foci) formation: no longer formed spheres
3T3-KRASD12 cells
  sphere (foci) formation: formed spheres
